What all share (assay type): cell-based
The test system of one test is MDA-MB-231. As to the kind of experiment: MTT cytotoxic activity against breast MDA-MB-231 cancer cell line. Particulars: Homo sapiens, MDA-MB-231; MTT assay, 24 h treatment. The text has this:
(§1) All the synthesised compounds were screened for their cytotoxic activity against breast MDA-MB-231 cancer cell line and compounds 6 and 12 against breast MCF-10A cell line taking CA-4 as a positive control for the analysis. The in vitro cytotoxicity results of the prepared compounds were systematised in Table 1. […] Structurally, the prepared molecules contain three structural variations; including rotatable hydrazide derivatives, the core exchange with imidazolone ring, and the ring expansion with triazinone motif. […] It is noticed that directly attached benzene ring to triazinone scaffold (compound 6) or bioisosteric group (thiazolyl ester) as in compound 12, may contribute to the astonishing cytotoxicity against breast MDA-MB-231 cancer cells.
To measure the cytotoxic activity of the synthesised derivatives 2a–13e in breast cancer (MDA-MB-231) cell line. MTT assay method was applied to assess cell viability assay. All experimental steps were conducted as reported earlier.
(§2) Part I: Biological Studies
(§3) 4.3. Biological evaluation
(§4) 4.3.1. Cytotoxic activity evaluation
(§5) The cytotoxic actvity of the synthesized derivatives 2a-13e was measured in MDA-MB-231 breast cancer cell line and derivatives 6 and 12 in MCF-10A […].
(§6) Cell viability assay was assessed using MTT assay method. Cells at density of 1 x 104 were seeded in a 96-well plate at 37 °C for 24 h under 5% CO2. After incubation, the cells were treated with different concentrations of the test schiff bases 2a-13e and incubated for 24 h, then 20 µl of MTT solution at 5 mg/mL was applied and incubated for 4 h at 37 °C.
Dimethyl sulphoxide (DMSO) in volume of 100 µl was added to each well to dissolve the purple formazan that had formed. The color intensity of the formazan product, which represents the growth condition of the cells, is quantified by using an ELISA plate reader (EXL 800, USA) at 570 nm absorbance. The experimental conditions were carried out with at least three replicates, and the experiments were repeated at least three times. […]
In general terms: Formazan colour is commonly taken as a measure of viable cells.

Another test has as its system β-tubulin. As to the kind of experiment: β-tubulin polymerisation inhibition assay (Human Beta-tubulin ELISA kit) on MDA-MB-231 cells. The following applies: MDA-MB-231 cell line, each compound at its IC50 concentration. The method, then:
Trimethoxy phenyl fragment-containing natural stilbenoid-derived molecules, such as Colchicine and CA-4 bind to β-tubulin subunit at the colchicine binding site resulting in inhibition of microtubule assembly and suppression of its formation. […] From the obtained results it can be concluded that the antiproliferative activity of the synthesised triazinone-linked CA-4 derivatives may be derived from the inhibition of microtubule assembly.
Triazinone derivatives 6 and 12 were assessed for their tubulin inhibitory activity according to manufacturer’s instructions using # abcam Human Beta-tubulin simple step ELISA Kit ab245722.
as §2, §3, §4, §5, §6
Dimethyl sulphoxide (DMSO) in volume of 100 µl was added to each well to dissolve the purple formazan that had formed. The color intensity of the formazan product, which represents the growth condition of the cells, is quantified by using an ELISA plate reader (EXL 800, USA) at 570 nm absorbance. The experimental conditions were carried out with at least three replicates, and the experiments were repeated at least three times.
4.3.2. Tubulin inhibitions Assay
(§7) Compounds 6, 12 and CA-4 were evaluated for their tubulin inhibitory activity according to manufacturer’s instructions using # abcam Human Beta-tubulin simplestep ELISA Kit ab245722. MDA-MB-231 cells were trypsinized, counted and seeded at the 2 × 105 into 96-well micro titer plates. […]
(§8) (O.D.) was measured at 450±10 nm using microplate reader (Spectromax Plus 96 well plate […]

A further test deals with MCF-10A. The test is described as follows: MTT cytotoxic activity against breast MCF-10A cell line. Particulars: Homo sapiens, MCF-10A; MTT assay, 24 h treatment.
Text: as §1, §2, §3, §4, §5, §6
Dimethyl sulphoxide (DMSO) in volume of 100 µl was added to each well to dissolve the purple formazan that had formed. The color intensity of the formazan product, which represents the growth condition of the cells, is quantified by using an ELISA plate reader (EXL 800, USA) at 570 nm absorbance. […]
as §7, §8

A word on the IC50: it is the concentration needed to halve the response being measured. For `COc1ccc(/C=C\c2cc(OC)c(OC)c(OC)c2)cc1O` [CA-4, Combretastatin-A4, reference compound], the IC50 worked out at 0.55 ± 0.09 µM in the test with MDA-MB-231 and 8.91 ± 0.71 µM with MCF-10A. In addition, in the test on β-tubulin, the “% Inhibition of β-tubulin polymerisation” value was found to be 87.05 ± 0.08%.

The record behind these values is paper PMC9518609, “Design and synthesis of new trimethoxylphenyl-linked combretastatin analogues loaded on diamond nanoparticles as a panel for ameliorated solubility and antiproliferative activity” (Journal of Enzyme Inhibition and Medicinal Chemistry, 2022).
